Results from patent US20140212800A1, “ELECTROPHOTOGRAPHIC PHOTOSENSITIVE MEMBER, PROCESS CARTRIDGE AND ELECTROPHOTOGRAPHIC APPARATUS” (CANON KABUSHIKI KAISHA, priority 2013, published 2014).

Assay: Solubility of the charge transporting substance in 100 g of first / second solvent
Type: physicochemical
Conditions: 23° C., 1 atmosphere; for Solubility Y1: in 100 g of toluene (first solvent)
Description: The charge transporting layer satisfying the expressions (4-1) to (4-5) is formed by drying a coat of a charge-transporting-layer coating liquid containing the charge transporting substance, the binder resin, and the following first solvent and second solvent. Additionally, when the solubility of the charge transporting substance in 100 g of the first solvent in an environment at 23° C. under 1 atmosphere is designated as Y1(g), and the solubility of the charge transporting substance in 100 g of the second solvent in an environment at 23° C. under 1 atmosphere is designated as Y2(g), solubility Y1 and solubility Y2 satisfy the following expression (6).
Each of electrophotographic photosensitive members was produced in the same manner as in Example 1 except that the charge transporting substance represented by the formula (CTM-2), polyester resin A having the structural unit represented by the formula (1-18) and o-xylene in Example 1 were changed as shown in Table 1.

For `C(/C=C/c1cccc(N(c2ccccc2)c2ccc(-c3ccc(N(c4ccccc4)c4cccc(/C=C/C=C/c5ccccc5)c4)cc3)cc2)c1)=C\c1ccccc1` [CTM-2], the “Solubility Y2” value (in 100 g of acetophenone (second solvent)) was 8 g, the “Solubility Y2” value (in 100 g of methyl benzoate (second solvent)) was 8 g and the “Solubility Y1” value was 20 g.
For `Cc1ccc(N(C=C(c2ccccc2)c2ccccc2)c2ccc(-c3ccc(N(C=C(c4ccccc4)c4ccccc4)c4ccc(C)cc4C)cc3)cc2)c(C)c1` [CTM-3], the “Solubility Y1” value was 25 g.
